From patent US9708318B2, “Bicyclic heterocycles as FGFR4 inhibitors” (Incyte Corporation, priority 2015, dated 2017)
Read-outs that look alike come from different tables or passages of the source.

How the values were obtained:
[1] = molecular target: FGFR2 (Homo sapiens (Human), UniProt P21802); assay: FGFR Enzymatic Assay (FRET peptide phosphorylation), FGFR2; type: biochemical
Description: (§1) The inhibitor potency of the exemplified compounds was measured in an enzyme assay that measures peptide phosphorylation using FRET measurements to detect product formation. Inhibitors were serially diluted in DMSO and a volume of 0.5 μL was transferred to the wells of a 384-well plate.
The enzymes were purchased from Millipore or Invitrogen.
(§2) GraphPad prism3 was used to analyze the data.

[2] = molecular target: FGFR3 enzyme (Homo sapiens (Human), UniProt P22607); assay: FGFR Enzymatic Assay (FRET peptide phosphorylation), FGFR3; type: biochemical; settings: read-out: FGFR3 IC50
Description: as §1, §2

[3] = molecular target: FGFR1 (Homo sapiens (Human), UniProt P11362); assay: FGFR Enzymatic Assay (FRET peptide phosphorylation), FGFR1
[4] = FGFR1 IC50 (nM), pre-incubated for 4 hours
[5] = pre-incubated for 5 to 10 minutes
[6] = FGFR1 IC50 (nM), pre-incubated for 5 to 10 minutes

Sequence of FGFR2 (P21802 22-821): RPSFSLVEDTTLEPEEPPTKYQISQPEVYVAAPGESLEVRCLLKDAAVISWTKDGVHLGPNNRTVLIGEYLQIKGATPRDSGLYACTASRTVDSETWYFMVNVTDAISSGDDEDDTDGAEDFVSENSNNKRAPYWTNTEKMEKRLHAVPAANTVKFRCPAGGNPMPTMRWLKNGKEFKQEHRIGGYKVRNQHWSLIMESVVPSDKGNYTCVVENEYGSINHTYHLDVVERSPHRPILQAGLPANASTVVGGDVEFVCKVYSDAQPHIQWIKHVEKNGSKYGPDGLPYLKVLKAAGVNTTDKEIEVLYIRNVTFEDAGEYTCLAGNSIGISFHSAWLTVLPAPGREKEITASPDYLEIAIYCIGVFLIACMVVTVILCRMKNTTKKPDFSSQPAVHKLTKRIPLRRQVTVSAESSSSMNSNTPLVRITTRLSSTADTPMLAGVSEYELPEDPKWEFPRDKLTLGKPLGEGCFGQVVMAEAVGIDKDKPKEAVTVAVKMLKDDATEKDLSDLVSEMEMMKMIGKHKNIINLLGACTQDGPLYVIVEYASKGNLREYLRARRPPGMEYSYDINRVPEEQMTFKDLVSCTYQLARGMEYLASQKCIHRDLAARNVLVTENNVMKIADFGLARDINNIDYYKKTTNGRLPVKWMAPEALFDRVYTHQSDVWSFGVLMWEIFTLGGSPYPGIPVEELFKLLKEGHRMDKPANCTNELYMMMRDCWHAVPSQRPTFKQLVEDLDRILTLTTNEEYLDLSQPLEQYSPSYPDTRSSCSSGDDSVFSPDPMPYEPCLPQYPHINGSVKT
Sequence of FGFR1 (P11362 22-822): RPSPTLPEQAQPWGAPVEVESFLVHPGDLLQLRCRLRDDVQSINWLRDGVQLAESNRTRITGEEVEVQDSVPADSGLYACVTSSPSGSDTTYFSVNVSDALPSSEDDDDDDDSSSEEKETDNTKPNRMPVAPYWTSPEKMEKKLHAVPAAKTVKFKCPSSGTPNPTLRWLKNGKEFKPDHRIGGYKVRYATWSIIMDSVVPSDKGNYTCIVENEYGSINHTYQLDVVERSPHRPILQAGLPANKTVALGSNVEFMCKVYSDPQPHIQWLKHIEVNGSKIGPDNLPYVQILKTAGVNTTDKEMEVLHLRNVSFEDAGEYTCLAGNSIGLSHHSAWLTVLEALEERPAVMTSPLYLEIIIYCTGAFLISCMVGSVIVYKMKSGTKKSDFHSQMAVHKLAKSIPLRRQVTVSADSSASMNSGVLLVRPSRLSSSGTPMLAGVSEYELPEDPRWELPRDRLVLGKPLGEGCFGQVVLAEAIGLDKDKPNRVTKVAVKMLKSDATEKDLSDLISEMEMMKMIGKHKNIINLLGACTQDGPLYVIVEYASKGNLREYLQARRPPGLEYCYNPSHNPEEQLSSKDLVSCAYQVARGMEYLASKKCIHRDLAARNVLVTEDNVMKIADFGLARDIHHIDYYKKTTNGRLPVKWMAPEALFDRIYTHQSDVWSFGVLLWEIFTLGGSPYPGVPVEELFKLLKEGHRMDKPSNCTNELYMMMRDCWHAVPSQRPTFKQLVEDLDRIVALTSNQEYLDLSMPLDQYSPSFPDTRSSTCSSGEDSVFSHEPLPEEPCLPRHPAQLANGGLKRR
Sequence of FGFR3 enzyme (P22607 23-806): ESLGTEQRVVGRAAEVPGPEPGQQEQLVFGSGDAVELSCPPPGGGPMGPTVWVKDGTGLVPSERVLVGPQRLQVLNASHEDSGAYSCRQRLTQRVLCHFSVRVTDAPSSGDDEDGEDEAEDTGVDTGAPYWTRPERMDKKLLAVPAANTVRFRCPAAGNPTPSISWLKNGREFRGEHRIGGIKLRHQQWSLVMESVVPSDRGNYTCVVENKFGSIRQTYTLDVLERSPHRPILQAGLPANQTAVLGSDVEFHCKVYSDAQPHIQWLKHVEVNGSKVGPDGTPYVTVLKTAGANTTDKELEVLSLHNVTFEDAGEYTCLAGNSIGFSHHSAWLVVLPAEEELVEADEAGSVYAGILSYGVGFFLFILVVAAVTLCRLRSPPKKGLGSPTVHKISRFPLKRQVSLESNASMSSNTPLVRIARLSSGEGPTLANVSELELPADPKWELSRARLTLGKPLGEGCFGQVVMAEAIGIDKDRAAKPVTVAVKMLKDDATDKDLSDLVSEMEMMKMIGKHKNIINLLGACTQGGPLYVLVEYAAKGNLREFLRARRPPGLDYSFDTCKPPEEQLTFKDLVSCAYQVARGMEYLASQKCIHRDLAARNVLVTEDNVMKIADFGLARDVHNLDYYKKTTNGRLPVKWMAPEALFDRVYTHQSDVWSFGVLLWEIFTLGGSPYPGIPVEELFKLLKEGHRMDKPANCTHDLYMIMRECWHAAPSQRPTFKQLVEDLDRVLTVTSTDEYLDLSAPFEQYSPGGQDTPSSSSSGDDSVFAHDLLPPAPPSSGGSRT

| Compound | IC50 ([1]; pre-incubated for 4 hours) [nM] | IC50 ([2]; pre-incubated for 4 hours) [nM] | IC50 [3, 4] [nM] | IC50 [1, 5] [nM] | IC50 [2, 5] [nM] | IC50 [3, 6] [nM] | IC50 ([3]; read-out: FGFR1 IC50, pre-incubated for 5 to 10 minutes) [nM] | IC50 ([3]; read-out: FGFR1 IC50, pre-incubated for 4 hours) [nM] |
| --- | --- | --- | --- | --- | --- | --- | --- | --- |
| CCn1cc(CN2C(=O)N(c3c(F)c(OC)cc(OC)c3F)Cc3cnc(-c4cnn(C)c4)cc32)cn1 [Example 145, 3-(2,6-difluoro-3,5-dimethoxyphenyl)-1-((1-ethyl-1H-pyrazol-4-yl)methyl)-7-(1-methyl-1H-pyrazol-4-yl)-3,4-dihydropyrido[4,3-d]pyrimidin-2(1H)-one] | – | – | – | < 10 | < 10 | – | < 10 | – |
| COc1cc(OC)c(F)c(N2Cc3cnc(-c4cnn(C5(C#N)CCC5)c4C)cc3C3(CC3)C2=O)c1F [Example 149, 1-(4-(2′-(2,6-difluoro-3,5-dimethoxyphenyl)-3′-oxo-2′,3′-dihydro-1′H-spiro[cyclopropane-1,4′-[2,7]naphthyridine]-6′-yl)-5-methyl-1H-pyrazol-1-yl)cyclobutanecarbonitrile] | < 10 | < 10 | […] | – | – | – | – | – |
| COc1cc(OC)c(F)c(N2Cc3cnc(-c4cn(C)nc4C)cc3N(CC3CCOCC3)C2=O)c1F [Example 37, 3-(2,6-difluoro-3,5-dimethoxyphenyl)-7-(1,3-dimethyl-1H-pyrazol-4-yl)-1-((tetrahydro-2H-pyran-4-yl)methyl)-3,4-dihydropyrido[4,3-d]pyrimidin-2(1H)-one] | < 10 | < 10 | 10 to 30 | – | – | – | – | – |
| COc1cc(OC)c(F)c(N2Cc3cnc(-c4cn(C)nc4C)cc3N(Cc3ccccn3)C2=O)c1F [Example 94, 3-(2,6-difluoro-3,5-dimethoxyphenyl)-7-(1,3-dimethyl-1H-pyrazol-4-yl)-1-(pyridin-2-ylmethyl)-3,4-dihydropyrido[4,3-d]pyrimidin-2(1H)-one] | < 10 | < 10 | – | – | – | – | – | < 10 |
| CCc1nnc(CN2C(=O)N(c3c(F)c(OC)cc(OC)c3F)Cc3cnc(-c4cn(C)nc4C)cc32)o1 [Example 67, 3-(2,6-difluoro-3,5-dimethoxyphenyl)-7-(1,3-dimethyl-1H-pyrazol-4-yl)-1-((5-ethyl-1,3,4-oxadiazol-2-yl)methyl)-3,4-dihydropyrido[4,3-d]pyrimidin-2(1H)-one] | < 10 | < 10 | […] | – | – | – | – | – |
